Assay results as given in ChEMBL document CHEMBL2069247, “A highly sensitive fluorescent viscosity sensor” (Bioorg Med Chem Lett, 2012).

Experiments:
HeLa [1] = test: Drug uptake in human HeLa cells at 5 uM after 2 hrs by fluorescence microscopic analysis; type: ADME, cell-based
HeLa [2] = test: Drug uptake in human HeLa cells measured immediately; type: ADME, cell-based

Cn1ccc2ccc(-c3ccc4c(-c5ccccc5C(=O)O)c5ccc(=O)cc-5oc4c3)cc21
Drug uptake (HeLa [1]): Active | Drug uptake (HeLa [2]): Active
